Test results taken from patent US9156801B2, “2-substituted oleanolic acid derivative, method preparing for same, and application thereof” (HANGZHOU BENSHENG PHARMACEUTICAL CO., LTD., priority 2011, dated 2015).
Values after ≈ are worked out from the molar mass of the structure shown.

Key:
H9 cell line = experiment: leukemia cell growth inhibition, MTT; type: cell-based; settings: Homo sapiens; for IC50: H9, 72 h; for inhibition at 16 µg/mL: H9, 16 μg/mL compound, 72 h, read-out: IR (cell proliferation inhibition rate)
Summary of the method: (§1)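 Proliferation inhibition rates derive from MTT-measured viability, normalised so the compound-free group equals 0%. Exposure lasted 72 hours at 37° C, 5% CO2, starting from 6000 cells/well in serum-supplemented (10% FBS) 1640 medium.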

Jurkat cell line = experiment: leukemia cell growth inhibition, MTT; type: cell-based; settings: Homo sapiens, 72 h; for inhibition at 16 µg/mL: 16 μg/mL compound, read-out: IR (cell proliferation inhibition rate)
Summary of the method: as §1

K562/adr cell line = experiment: leukemia cell growth inhibition, MTT; type: cell-based; settings: Homo sapiens, 72 h; for IC50: K562/Adr; for inhibition at 16 µg/mL: K562/adr, 16 μg/mL compound, read-out: IR (cell proliferation inhibition rate)
Summary of the method: as §1

Kasumi-1 cell line = experiment: leukemia cell growth inhibition, MTT; type: cell-based; settings: Homo sapiens; for inhibition at 16 µg/mL: Kasumi-1, 16 μg/mL compound, 72 h, read-out: IR (cell proliferation inhibition rate); for IC50: Kasumi-1, 72 h
Summary of the method: as §1

NB4 cell line = experiment: leukemia cell growth inhibition, MTT; type: cell-based; settings: Homo sapiens, NB-4; for inhibition at 16 µg/mL: NB4, 16 μg/mL compound, 72 h, read-out: IR (cell proliferation inhibition rate); for IC50: NB4, 72 h
Summary of the method: as §1

RPMI8226 cell line = experiment: multiple myeloma cell growth inhibition, MTT; type: cell-based; settings: Homo sapiens, RPMI-8226; for inhibition at 16 µg/mL: RPMI8226, 16 μg/mL compound, 72 h, read-out: IR (cell proliferation inhibition rate); for IC50: RPMI8226, 72 h
Summary of the method: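 Viability was measured by MTT after a 72 h compound exposure (37° C, 5% CO2) of RPMI8226 myeloma cells seeded at 6000 per well in 1640 medium with 10% fetal bovine serum. Growth inhibition was expressed relative to untreated cells, taken as 0%.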

Hep G2 cell line = experiment: solid tumor cell growth inhibition, MTT; type: cell-based, human; settings: Homo sapiens; for inhibition at 16 µg/mL: HepG2, 72 h, Hep G2, 16 μg/mL compound, 72 h, read-out: IR (cell proliferation inhibition rate); for IC50: HepG2, Hep G2, 72 h
Summary of the method: (§2)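 Cells (4000/well) in DMEM high glucose with 10% FBS were pre-cultured 24 h at 37° C, 5% CO2, then exposed to graded compound concentrations for 72 h. Viable cells were measured by MTT, with untreated controls set at 0% inhibition.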

A549 cell line = experiment: solid tumor cell growth inhibition, MTT; type: cell-based; settings: Homo sapiens; for IC50: A549, 72 h; for inhibition at 16 µg/mL: A549, 16 μg/mL compound, 72 h, read-out: IR (cell proliferation inhibition rate)
Summary of the method: as §2

Becap37 cell line = experiment: solid tumor cell growth inhibition, MTT; type: cell-based; settings: Homo sapiens; for inhibition at 16 µg/mL: Becap37, 16 μg/mL compound, 72 h, read-out: IR (cell proliferation inhibition rate); for IC50: Becap37, 72 h
Summary of the method: as §2

CNE cell line = experiment: solid tumor cell growth inhibition, MTT; type: cell-based; settings: Homo sapiens, 72 h; for inhibition at 16 µg/mL: 16 μg/mL compound, read-out: IR (cell proliferation inhibition rate)
Summary of the method: as §2

CaES-17 cell line = experiment: solid tumor cell growth inhibition, MTT; type: cell-based; settings: Homo sapiens, CaEs17; for inhibition at 16 µg/mL: CaES-17, 16 μg/mL compound, 72 h, read-out: IR (cell proliferation inhibition rate); for IC50: CaES-17, 72 h
Summary of the method: as §2

Hela cell line = experiment: solid tumor cell growth inhibition, MTT; type: cell-based; settings: Homo sapiens, 72 h; for IC50: HeLa; for inhibition at 16 µg/mL: Hela, 16 μg/mL compound, read-out: IR (cell proliferation inhibition rate)
Summary of the method: as §2

Hep-2 cell line = experiment: solid tumor cell growth inhibition, MTT; type: cell-based; settings: Homo sapiens; for IC50: HEp-2, 72 h; for inhibition at 16 µg/mL: Hep-2, 16 μg/mL compound, 72 h, read-out: IR (cell proliferation inhibition rate)
Summary of the method: as §2

MG-63 cell line = experiment: solid tumor cell growth inhibition, MTT; type: cell-based; settings: Homo sapiens; for IC50: MG-63, 72 h; for inhibition at 16 µg/mL: MG-63, 16 μg/mL compound, 72 h, read-out: IR (cell proliferation inhibition rate)
Summary of the method: as §2

MGC 803 cell line = experiment: solid tumor cell growth inhibition, MTT; type: cell-based; settings: Homo sapiens; for inhibition at 16 µg/mL: MGC 803, 16 μg/mL compound, 72 h, read-out: IR (cell proliferation inhibition rate); for IC50: MGC 803, 72 h
Summary of the method: as §2

PANC-1 cell line = experiment: solid tumor cell growth inhibition, MTT; type: cell-based; settings: Homo sapiens; for IC50: PANC-1, 72 h; for inhibition at 16 µg/mL: PANC-1, 16 μg/mL compound, 72 h, read-out: IR (cell proliferation inhibition rate)
Summary of the method: as §2

PC-3 cell line = experiment: solid tumor cell growth inhibition, MTT; type: cell-based; settings: Homo sapiens; for IC50: PC-3, 72 h; for inhibition at 16 µg/mL: PC-3, 16 μg/mL compound, 72 h, read-out: IR (cell proliferation inhibition rate)
Summary of the method: as §2

RKO cell line = experiment: solid tumor cell growth inhibition, MTT; type: cell-based; settings: Homo sapiens, 72 h; for inhibition at 16 µg/mL: 16 μg/mL compound, read-out: IR (cell proliferation inhibition rate)
Summary of the method: as §2

SK-OV-3 cell line = experiment: solid tumor cell growth inhibition, MTT; type: cell-based; settings: Homo sapiens; for IC50: SK-OV-3, 72 h; for inhibition at 16 µg/mL: SK-OV-3, 16 μg/mL compound, 72 h, read-out: IR (cell proliferation inhibition rate)
Summary of the method: as §2

U87 MG cell line = experiment: solid tumor cell growth inhibition, MTT; type: cell-based; settings: Homo sapiens, U-87 MG, 72 h; for inhibition at 16 µg/mL: 16 μg/mL compound, read-out: IR (cell proliferation inhibition rate)
Summary of the method: as §2

IC50 (H9 cell line)	IC50 (Jurkat cell line)	IC50 (K562/adr cell line)	IC50 (Kasumi-1 cell line)	IC50 (NB4 cell line)	IC50 (RPMI8226 cell line)	IC50 (Hep G2 cell line)	IC50 (A549 cell line)	IC50 (Becap37 cell line)	IC50 (CNE cell line)	SMILES	inhibition at 16 µg/mL (H9 cell line)	inhibition at 16 µg/mL (Jurkat cell line)	inhibition at 16 µg/mL (K562/adr cell line)	inhibition at 16 µg/mL (Kasumi-1 cell line)	inhibition at 16 µg/mL (NB4 cell line)	inhibition at 16 µg/mL (RPMI8226 cell line)	inhibition at 16 µg/mL (Hep G2 cell line)	inhibition at 16 µg/mL (A549 cell line)	inhibition at 16 µg/mL (Becap37 cell line)	inhibition at 16 µg/mL (CNE cell line)	other results
> 16 µg/mL	> 16 µg/mL	6.52 µg/mL (≈ 11 µM)	> 16 µg/mL	10.6 µg/mL (≈ 17.8 µM)	10.5 µg/mL (≈ 17.7 µM)	> 16 µg/mL	> 16 µg/mL	> 16 µg/mL	10.6 µg/mL (≈ 17.8 µM)	CC1(C)CC[C@]2(C(=O)O)CC[C@]3(C)C(=CC[C@@H]4[C@@]5(C)CC(C(=O)NCCN6CCCC6)C(=O)C(C)(C)[C@@H]5CC[C@]43C)[C@@H]2C1 (some centres unmarked) [BS-OA-105]	31.5%	37.5%	85%	36.6%	74.7%	81.8%	29.5%	24%	43.7%	54.5%	inhibition at 16 µg/mL (CaES-17 cell line): 45%; IC50 (CaES-17 cell line): 18.9 µg/mL (≈ 31.7 µM); IC50 (Hela cell line): 7.29 µg/mL (≈ 12.3 µM); inhibition at 16 µg/mL (Hela cell line): 68.1%; IC50 (Hep-2 cell line): > 16 µg/mL; inhibition at 16 µg/mL (Hep-2 cell line): 28.4%; IC50 (MG-63 cell line): 12.6 µg/mL (≈ 21.1 µM); inhibition at 16 µg/mL (MG-63 cell line): 54.6%; inhibition at 16 µg/mL (MGC 803 cell line): 29.2%; IC50 (MGC 803 cell line): > 16 µg/mL; IC50 (PANC-1 cell line): > 16 µg/mL; inhibition at 16 µg/mL (PANC-1 cell line): 16.9%; IC50 (PC-3 cell line): > 16 µg/mL; inhibition at 16 µg/mL (PC-3 cell line): 18.4%; inhibition at 16 µg/mL (RKO cell line): 8.6%; IC50 (RKO cell line): > 16 µg/mL; IC50 (SK-OV-3 cell line): > 16 µg/mL; inhibition at 16 µg/mL (SK-OV-3 cell line): 5%; inhibition at 16 µg/mL (U87 MG cell line): 61.7%; IC50 (U87 MG cell line): 2.31 µg/mL (≈ 3.88 µM)
> 16 µg/mL	> 16 µg/mL	4.12 µg/mL (≈ 6.9 µM)	> 16 µg/mL	7.32 µg/mL (≈ 12.3 µM)	12.2 µg/mL (≈ 20.5 µM)	> 16 µg/mL	> 16 µg/mL	> 16 µg/mL	> 16 µg/mL	CCN(CC)CCNC(=O)C1C[C@@]2(C)C(CC[C@]3(C)C2CC=C2C4CC(C)(C)CC[C@]4(C(=O)O)CC[C@]23C)C(C)(C)C1=O (some centres unmarked) [BS-OA-106]	44.6%	43.2%	98.2%	43%	86.6%	68.3%	33.6%	31.5%	27.5%	44.3%	inhibition at 16 µg/mL (CaES-17 cell line): 10%; IC50 (CaES-17 cell line): > 16 µg/mL; IC50 (Hela cell line): > 16 µg/mL; inhibition at 16 µg/mL (Hela cell line): 34.6%; IC50 (Hep-2 cell line): > 16 µg/mL; inhibition at 16 µg/mL (Hep-2 cell line): 3.8%; IC50 (MG-63 cell line): > 16 µg/mL; inhibition at 16 µg/mL (MG-63 cell line): 4.9%; inhibition at 16 µg/mL (MGC 803 cell line): 13.4%; IC50 (MGC 803 cell line): > 16 µg/mL; IC50 (PANC-1 cell line): > 16 µg/mL; inhibition at 16 µg/mL (PANC-1 cell line): 16.9%; IC50 (PC-3 cell line): > 16 µg/mL; inhibition at 16 µg/mL (PC-3 cell line): -6.4%; inhibition at 16 µg/mL (RKO cell line): 5.3%; IC50 (RKO cell line): > 16 µg/mL; IC50 (SK-OV-3 cell line): > 16 µg/mL; inhibition at 16 µg/mL (SK-OV-3 cell line): -17%; inhibition at 16 µg/mL (U87 MG cell line): 7.2%; IC50 (U87 MG cell line): > 16 µg/mL
